Series [1] in a line: Half life in C57BL/6 mouse at 20 mg/kg, po. The series is classed as ADME, organism-based. The arrangement: dose 20 mg/kg, route oral. The note with it: in vivo.
Series [2] can be described thus: Half life in C57BL/6 mouse at 5 mg/kg, iv. The arrangement: dose 5 mg/kg, route intravenous. The series is classed as ADME, organism-based. The note with it: in vivo.
Series [3] can be described thus: AUC (0 to 8 hrs) in C57BL/6 mouse at 20 mg/kg, po. The series is classed as ADME, organism-based. The arrangement: time < 8 hr, dose 20 mg/kg, route oral. The note with it: plasma.
The nature of series [4]: Solubility in aqueous acidic solution at pH 1.2. The series is classed as physicochemical.
Series [5] has as its system Mus musculus. The series can be described thus: Inhibition of Scd1 in po dosed db/db mouse assessed as [14C]oleate to [14C]stearate ratio in liver administered 2 hrs before [14C]stearate challenge measured after 1 hr. The following applies: read-out: ID50 (the source's name). The series is classed as functional.
Series [6] in a line: Oral bioavailability in C57BL/6 mouse at 20 mg/kg. The series is classed as ADME, organism-based. The note with it: in vivo.
The target of series [7] is T1, Stearoyl-CoA desaturase (Homo sapiens) (UniProt O00767).
T1 sequence (whole entry): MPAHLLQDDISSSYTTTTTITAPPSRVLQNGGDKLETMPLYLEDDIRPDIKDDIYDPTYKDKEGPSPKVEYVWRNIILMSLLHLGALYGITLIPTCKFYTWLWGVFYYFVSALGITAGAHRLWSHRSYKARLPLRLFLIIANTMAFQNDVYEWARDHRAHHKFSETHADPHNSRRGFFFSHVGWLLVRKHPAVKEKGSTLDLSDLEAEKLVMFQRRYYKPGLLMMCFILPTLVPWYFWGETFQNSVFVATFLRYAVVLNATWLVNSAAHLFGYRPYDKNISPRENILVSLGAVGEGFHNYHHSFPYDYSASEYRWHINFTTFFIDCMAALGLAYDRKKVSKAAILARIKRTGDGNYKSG
The series can be described thus: Inhibition of human Scd1 assessed as conversion of [14C]stearate to [14C]oleate at 10 uM pretreated for 30 mins measured after 4 hrs.

Series [8] can be described thus: Solubility in neutral solution at pH 6.8. The series is classed as physicochemical.
A short description of series [9]: Clearance in C57BL/6 mouse at 5 mg/kg, iv. The series is classed as ADME, organism-based. The arrangement: dose 5 mg/kg, route intravenous. The note with it: in vivo.
A short description of series [10]: Volume of distribution in C57BL/6 mouse at 5 mg/kg, iv. The series is classed as ADME, organism-based. The arrangement: dose 5 mg/kg, route intravenous. The following applies: in vivo.
Series [11] is described as follows: Metabolic stability in mouse liver S9 fraction assessed as compound remaining after 30 mins. The series is classed as ADME, subcellular. The following applies: read-out: Stability.
A short description of series [12]: Cmax in C57BL/6 mouse at 20 mg/kg, po. The series is classed as ADME, organism-based. The arrangement: dose 20 mg/kg, route oral. The note with it: in vivo.
Series [13] deals with T2, Acyl-CoA desaturase 1 (Mus musculus, UniProt P13516).
T2 sequence (P13516 whole entry): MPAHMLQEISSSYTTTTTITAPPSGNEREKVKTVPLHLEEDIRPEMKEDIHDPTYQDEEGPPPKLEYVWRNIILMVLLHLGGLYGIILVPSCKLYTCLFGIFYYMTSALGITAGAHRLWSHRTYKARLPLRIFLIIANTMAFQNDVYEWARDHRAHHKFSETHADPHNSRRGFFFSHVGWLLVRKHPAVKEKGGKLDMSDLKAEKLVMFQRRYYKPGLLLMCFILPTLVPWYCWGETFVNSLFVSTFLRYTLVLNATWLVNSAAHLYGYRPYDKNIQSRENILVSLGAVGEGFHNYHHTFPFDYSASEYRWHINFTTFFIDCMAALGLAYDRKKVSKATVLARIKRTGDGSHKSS
The series can be described thus: Inhibition of Scd1 in mouse liver microsomes assessed as conversion of [14C]stearate to [14C]oleate pretreated for 10 mins measured after 60 mins. The arrangement: species or system Microsome. For orientation: Microsomes from liver hold many membrane-bound enzymes, among them those of drug oxidation.

The target in series [14] is T3, Stearoyl-CoA desaturase (Homo sapiens, UniProt O00767).
T3 sequence (O00767 whole entry): T1 sequence (whole entry)
As to the kind of experiment: Inhibition of human Scd1 expressed in HEK293A cells assessed as conversion of [14C]stearate to [14C]oleate pretreated for 30 mins measured after 4 hrs. It counts as cell-based, HEK293-A.

Series [15] addresses T3, Stearoyl-CoA desaturase. The series can be described thus: Inhibition of Scd1 in human HEK293A cell microsomes assessed as conversion of [14C]stearate to [14C]oleate pretreated for 10 mins measured after 60 mins. The arrangement: species or system HEK293-A, Microsome.
The test system of series [16] is Rattus norvegicus. The series can be described thus: Reduction of plasma glucose level in Zucker fatty rat at 30 mg/kg, po qd for 7 days. It counts as functional, organism-based. The arrangement: dose 30 mg/kg.
Series [17] has as its system Rattus norvegicus. The series can be described thus: Reduction of plasma triglyceride level in Zucker fatty rat at 30 mg/kg, po qd for 7 days. The series is classed as functional. The arrangement: scale not given: the % may be the effect or the level left.
For series [18], the system named is Rattus norvegicus. As to the kind of experiment: Toxicity in Zucker fatty rat assessed as reduction of body weight at 30 mg/kg, po qd for 7 days. The series is classed as organism-based. The arrangement: dose 30 mg/kg, route oral; scale not given: the % may be the effect or the level left. The note with it: in vivo, 168 h.
Series [19] relates to Rattus norvegicus. The series can be described thus: Toxicity in Zucker fatty rat assessed as induction of narrow eye fissure at 30 mg/kg, po qd for 7 days. The series is classed as organism-based. The note with it: in vivo, 168 h. The arrangement: dose 30 mg/kg, route oral.
For series [20], the system named is Rattus norvegicus. As to the kind of experiment: Reduction of plasma insulin level in Zucker fatty rat at 30 mg/kg, po qd for 7 days. The series is classed as functional, organism-based. The arrangement: dose 30 mg/kg.
Series [21] relates to Rattus norvegicus. As to the kind of experiment: Reduction of plasma triglyceride level in po dosed Zucker fatty rat administered qd for 7 days. The series is classed as functional, organism-based.
The subject of series [22] is Rattus norvegicus. The series can be described thus: Toxicity in Zucker fatty rat assessed as induction of cutaneous abnormalities at 30 mg/kg, po qd for 7 days. It counts as organism-based. The arrangement: dose 30 mg/kg, route oral. The following applies: in vivo, 168 h.

In brackets after ≈: the same amount, converted by molar mass. Activity calls are given as the source filed them.

In the case of `Cc1ccccc1C(=O)C1CCN(c2ccc(C(=O)NCC(O)c3ccccc3)nn2)CC1` (stereo unspecified), the half-life (commonly the time needed for the level to fall by half in the phase considered) in [1] is 48 min; in series [2] it was 36 min. Moreover, the AUC(0-t) (commonly exposure summed from dosing to a finite time, without extrapolation to infinity) at 8 h in series [3] turned out to be 0.5 µg·h/mL. Further, the solubility (as a rule, the dissolved amount per volume that the medium holds) in [4] is 88 µM (≈ 39.1 µg/mL); in series [8], 3 µM (≈ 1.33 µg/mL). Also, in series [5], the ED50 is 12 mg/kg. In series [6], the bioavailability (commonly dose-corrected exposure relative to a reference, in per cent) was 6%. Further, the inhibition (in general, the percentage by which the read-out fell short of the control) in [7] is less than 5%. For the same compound, the clearance (in general, the rate of elimination divided by the concentration) in series [9] worked out at 2.52 L/h/kg. Also, the Vd (as a rule, a proportionality between amount in the body and measured concentration, not a real space) in series [10] came to 0.9 L/kg. Besides, the remaining at 0.5 h in [11] worked out at 58%. The highest level in series [12] (Cmax) was 0.3 µg/mL.
Regarding `Cc1ccccc1C(=O)C1CCN(c2ccc(C(=O)NCC(O)c3ccsc3)nn2)CC1` (stereo unspecified), the figures for the IC50 in series [13], in [14] and in series [15] were 0.003 µM, 0.021 µM and 0.007 µM, respectively. Moreover, the ED50 in [5] was 16 mg/kg.
Turning to `O=C(NCC(O)c1ccccc1)c1ccc(N2CCC(C(=O)c3ccccc3)CC2)nn1` (stereo unspecified), the IC50 (commonly the point on the concentration scale where inhibition reaches its midpoint) worked out at 0.153 µM in series [13], 0.108 µM in [14] and 0.292 µM in series [15]. Moreover, in series [7], the inhibition is less than 5%.
Consider `Cc1ccccc1C(=O)C1CCN(c2ccc(C(=O)NCC(O)c3ccccn3)nn2)CC1` (stereo unspecified), for which the results for the IC50 in [13], in [14] and in series [15] were 0.095 µM, 0.39 µM and 0.18 µM, respectively.
Regarding `Cc1ccccc1C(=O)C1CCN(c2ccc(C(=O)NCC(O)c3ccccc3F)nn2)CC1` (stereo unspecified), the IC50 in series [13] was determined as 0.009 µM; in [14], 0.06 µM; in series [15] it was 0.022 µM. In addition, in [5], the ED50 was found to be 17 mg/kg.
Regarding `O=C(NCC(O)c1ccccc1)c1ccc(N2CCC(C(=O)c3ccc(F)cc3)CC2)nn1` (stereo unspecified), the IC50 came out at 0.074 µM in [13], 0.08 µM in [14] and 0.118 µM in series [15]. In addition, the inhibition in series [7] was determined as 12%.
Regarding `O=C(NCC(O)c1ccccc1)c1ccc(N2CCC(C(=O)c3ccccc3OC(F)(F)F)CC2)nn1` (stereo unspecified), the IC50 in series [13] worked out at 0.005 µM; in series [14], 0.103 µM; in [15], 0.01 µM. In addition, the values for the solubility in series [4] and in [8] were 83 µM (≈ 42.7 µg/mL) and less than 0.5 µM, respectively. Further, the inhibition in series [7] was less than 5%. Also, in [11], the remaining at 0.5 h was 22%.
As for `Cc1ccccc1C(=O)C1CCN(c2ccc(C(=O)NCC(O)c3ccncc3)nn2)CC1` (stereo unspecified), the values for the IC50 in series [13], in series [14] and in [15] were 0.034 µM, 0.144 µM and 0.187 µM, respectively.
Consider `Cc1ccccc1C(=O)C1CCN(c2ccc(C(=O)NCC(O)c3cccnc3)nn2)CC1` (stereo unspecified), for which the results for the half-life in series [1] and in series [2] were 54 min and 78 min, respectively. Besides, the outcome in [16] and in series [20] was inactive. The Activity in [17] is 56%; in series [18] it was 15%; in series [19], “Non-toxic”; in series [21], “Dose-dependent effect”; in [22], “Non-toxic”. In addition, the IC50 amounted to 0.037 µM in series [13], 0.043 µM in series [14] and 0.028 µM in series [15]. Further, the AUC(0-t) at 8 h in [3] was 7.8 µg·h/mL. Besides, the solubility in series [4] was more than 100 µM; in [8], 29 µM (≈ 12.9 µg/mL). The ED50 in [5] was found to be 3 mg/kg. In series [6], this compound came in with a bioavailability of 68%. Besides, the clearance in series [9] was 1.74 L/h/kg. The Vd in series [10] was 2.4 L/kg. Further, the remaining at 0.5 h in series [11] stood at 1.1%. Moreover, the highest level in [12] (Cmax) was 6.3 µg/mL.
For the compound `O=C(NCCc1ccccc1)c1ccc(N2CCN(C(=O)c3ccccc3C(F)(F)F)CC2)cn1`, the 50% inhibitory concentration (IC50) in series [13] worked out at 0.37 µM; in series [15] it was 0.25 µM.
For `Cc1ccccc1C(=O)C1CCN(c2ccc(C(=O)NCC(O)c3cccs3)nn2)CC1` (stereo unspecified), the IC50 in series [13] worked out at 0.007 µM; in series [14], 0.025 µM; in [15], 0.044 µM. Moreover, in series [5], the ED50 is 14 mg/kg.
Turning to `O=C(NCC(O)c1ccccc1)c1ccc(N2CCC(C(=O)c3ccccc3C(F)(F)F)CC2)nn1` (stereo unspecified), the IC50 in series [13] was determined as 0.002 µM; in series [14] it was 0.014 µM; in series [15], 0.007 µM. Also, the solubility in series [4] was 84 µM (≈ 41.9 µg/mL); in series [8], less than 0.5 µM. The inhibition in series [7] was determined as 9%. The remaining at 0.5 h in series [11] turned out to be 47%.
Take `Cc1ccccc1C(=O)C1CCN(c2ccc(C(=O)NCC(O)c3ccc(F)cc3)nn2)CC1` (stereo unspecified): the IC50 in series [13] was determined as 0.007 µM; in series [14], 0.022 µM; in series [15] it was 0.005 µM. Besides, the ED50 in [5] came out at 14 mg/kg.
On to `COc1ccccc1C(=O)C1CCN(c2ccc(C(=O)NCC(O)c3ccccc3)nn2)CC1` (stereo unspecified), for which the IC50 in series [13] was found to be 0.052 µM; in [14], 1.05 µM; in series [15], 0.311 µM. In addition, the inhibition in series [7] was less than 5%.
In the case of `Cc1ccccc1C(=O)C1CCN(c2ccc(C(=O)NCC(O)c3cccc(F)c3)nn2)CC1` (stereo unspecified), the IC50 was 0.005 µM in [13], 0.011 µM in series [14] and 0.006 µM in series [15]. In series [5], the ED50 came to 14 mg/kg.
With `O=C(NCCc1ccccc1)c1ccc(N2CCN(C(=O)c3ccccc3C(F)(F)F)CC2)cc1`, the IC50 in [13] was 0.15 µM; in [15] it was 0.82 µM.
The matching figures for `O=C(NCCc1ccccc1)c1ccc(N2CCN(C(=O)c3ccccc3C(F)(F)F)CC2)nc1`: 0.194 µM and 0.099 µM.

Source of the values: ChEMBL document CHEMBL1153136, “Novel benzoylpiperidine-based stearoyl-CoA desaturase-1 inhibitors: Identification of 6-[4-(2-methylbenzoyl)piperidin-1-yl]pyridazine-3-carboxylic acid (2-hydroxy-2-pyridin-3-ylethyl)amide and its plasma triglyceride-lowering effects in Zucker fatty rats” (Bioorg Med Chem Lett, 2010).
